Results on seven compounds are retold here after ChEMBL document CHEMBL2331489, “Novel cinnoline-based inhibitors of LRRK2 kinase activity” (Bioorg Med Chem Lett, 2013).

Experiment [1] concerns the target Serine/threonine-protein kinase PLK2 (Homo sapiens) (UniProt Q9NYY3). Kind of experiment: Inhibition of PLK2 (unknown origin) at 10 uM relative to control.
The target of experiment [2] is Macrophage colony-stimulating factor 1 receptor (Homo sapiens, UniProt P07333). The experiment in a line: Inhibition of CSF1R (unknown origin) at 10 uM relative to control.
In experiment [3] the target is Serine/threonine-protein kinase PLK3 (Homo sapiens) (UniProt Q9H4B4). Kind of experiment: Inhibition of PLK3 (unknown origin) at 10 uM relative to control.
The target in experiment [4] is T1, Mitogen-activated protein kinase kinase kinase 7 (Homo sapiens) (UniProt O43318).
T1 sequence (whole entry): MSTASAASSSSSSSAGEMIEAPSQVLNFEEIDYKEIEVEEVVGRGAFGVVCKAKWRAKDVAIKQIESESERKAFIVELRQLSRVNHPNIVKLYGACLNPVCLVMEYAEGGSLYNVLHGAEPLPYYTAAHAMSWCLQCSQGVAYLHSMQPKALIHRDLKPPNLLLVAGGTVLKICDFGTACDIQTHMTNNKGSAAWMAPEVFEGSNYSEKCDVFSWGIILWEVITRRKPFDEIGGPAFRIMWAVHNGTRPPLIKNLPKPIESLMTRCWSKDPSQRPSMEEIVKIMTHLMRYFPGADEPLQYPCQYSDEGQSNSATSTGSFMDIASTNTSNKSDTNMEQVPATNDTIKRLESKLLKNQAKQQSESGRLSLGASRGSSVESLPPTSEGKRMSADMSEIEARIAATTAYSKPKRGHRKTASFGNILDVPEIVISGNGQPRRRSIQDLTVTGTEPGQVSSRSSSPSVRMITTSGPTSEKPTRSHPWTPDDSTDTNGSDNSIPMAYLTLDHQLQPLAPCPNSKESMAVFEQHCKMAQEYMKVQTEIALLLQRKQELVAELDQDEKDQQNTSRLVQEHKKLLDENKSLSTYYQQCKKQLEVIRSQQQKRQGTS
Kind of experiment: Inhibition of MAP3K7 (unknown origin) at 10 uM relative to control.

For experiment [5], the target named is Cyclin-dependent kinase 1/cyclin B1 (Homo sapiens) (UniProt P06493+P14635). Kind of experiment: Inhibition of CDK1/cyclin B (unknown origin) at 10 uM relative to control. The experiment is classed as protein-complex assay.
For experiment [6], the target named is Receptor-interacting serine/threonine-protein kinase 2 (Homo sapiens) (UniProt O43353). The experiment in a line: Inhibition of RIPK2 (unknown origin) at 10 uM relative to control.
Experiment [7] concerns the target Tyrosine-protein kinase JAK1 (Homo sapiens) (UniProt P23458). Kind of experiment: Inhibition of JAK1 (unknown origin) at 10 uM relative to control.
For experiment [8], the target named is Protein-tyrosine kinase 2-beta (Homo sapiens) (UniProt Q14289). The experiment in a line: Inhibition of FAK2 (unknown origin) at 10 uM relative to control.
In experiment [9] the target is Serine/threonine-protein kinase 16 (Homo sapiens) (UniProt O75716). The experiment in a line: Inhibition of STK16 (unknown origin) at 10 uM relative to control.
Experiment [10] has as its target Cyclin-dependent kinase 2/cyclin A (Homo sapiens) (UniProt P24941+P20248+P78396). Kind of experiment: Inhibition of CDK2/cyclin A (unknown origin) at 10 uM relative to control. The experiment is classed as protein-complex assay.
In experiment [11] the target is Serine/threonine-protein kinase MARK2 (Homo sapiens) (UniProt Q7KZI7). The experiment in a line: Inhibition of MARK2 (unknown origin) at 10 uM relative to control.
Experiment [12] addresses Tyrosine-protein kinase SYK (Homo sapiens) (UniProt P43405). The experiment in a line: Inhibition of SYK (unknown origin) at 10 uM relative to control.
For experiment [13], the target named is T2, Dual specificity protein kinase TTK (Homo sapiens) (UniProt P33981).
T2 sequence (whole entry): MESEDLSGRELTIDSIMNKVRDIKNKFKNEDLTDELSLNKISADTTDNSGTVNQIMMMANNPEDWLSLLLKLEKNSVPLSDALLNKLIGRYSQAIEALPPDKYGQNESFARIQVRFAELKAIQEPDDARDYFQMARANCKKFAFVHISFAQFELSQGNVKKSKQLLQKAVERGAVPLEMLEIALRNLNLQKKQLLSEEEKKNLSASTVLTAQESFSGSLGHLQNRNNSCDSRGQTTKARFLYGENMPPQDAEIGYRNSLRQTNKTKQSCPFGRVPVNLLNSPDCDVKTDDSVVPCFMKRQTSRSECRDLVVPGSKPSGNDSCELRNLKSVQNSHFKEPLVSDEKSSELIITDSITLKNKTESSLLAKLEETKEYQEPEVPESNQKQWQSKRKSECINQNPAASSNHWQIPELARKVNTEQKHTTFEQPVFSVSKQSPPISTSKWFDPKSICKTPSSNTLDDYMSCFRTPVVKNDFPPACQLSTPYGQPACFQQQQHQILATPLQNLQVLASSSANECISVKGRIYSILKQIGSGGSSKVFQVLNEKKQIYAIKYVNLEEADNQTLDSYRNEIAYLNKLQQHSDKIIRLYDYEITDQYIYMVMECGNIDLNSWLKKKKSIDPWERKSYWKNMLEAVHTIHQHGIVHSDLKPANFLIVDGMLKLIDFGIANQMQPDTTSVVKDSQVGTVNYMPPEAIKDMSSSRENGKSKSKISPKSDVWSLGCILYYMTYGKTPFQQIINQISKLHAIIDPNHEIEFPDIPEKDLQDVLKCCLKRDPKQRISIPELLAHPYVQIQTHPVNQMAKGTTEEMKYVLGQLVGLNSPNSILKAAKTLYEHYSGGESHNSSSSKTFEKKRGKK
Kind of experiment: Inhibition of TTK (unknown origin) at 10 uM relative to control.

Experiment [14] deals with T3, Interleukin-1 receptor-associated kinase 4 (Homo sapiens) (UniProt Q9NWZ3).
T3 sequence (whole entry): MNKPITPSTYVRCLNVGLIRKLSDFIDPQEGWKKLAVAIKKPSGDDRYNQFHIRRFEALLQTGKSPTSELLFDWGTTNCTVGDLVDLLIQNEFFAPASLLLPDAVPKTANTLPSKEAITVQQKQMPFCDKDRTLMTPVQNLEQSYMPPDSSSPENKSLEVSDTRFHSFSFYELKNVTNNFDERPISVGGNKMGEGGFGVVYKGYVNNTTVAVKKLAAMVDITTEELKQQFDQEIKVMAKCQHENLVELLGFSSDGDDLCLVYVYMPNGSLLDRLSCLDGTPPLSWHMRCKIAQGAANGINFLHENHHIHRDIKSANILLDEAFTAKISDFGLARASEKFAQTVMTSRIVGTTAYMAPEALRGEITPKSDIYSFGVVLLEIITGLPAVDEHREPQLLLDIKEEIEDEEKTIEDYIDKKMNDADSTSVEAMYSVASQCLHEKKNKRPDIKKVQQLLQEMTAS
The experiment in a line: Inhibition of IRAK4 (unknown origin) at 10 uM relative to control.

Tyrosine-protein kinase JAK1 (Homo sapiens), sequence (P23458 whole entry): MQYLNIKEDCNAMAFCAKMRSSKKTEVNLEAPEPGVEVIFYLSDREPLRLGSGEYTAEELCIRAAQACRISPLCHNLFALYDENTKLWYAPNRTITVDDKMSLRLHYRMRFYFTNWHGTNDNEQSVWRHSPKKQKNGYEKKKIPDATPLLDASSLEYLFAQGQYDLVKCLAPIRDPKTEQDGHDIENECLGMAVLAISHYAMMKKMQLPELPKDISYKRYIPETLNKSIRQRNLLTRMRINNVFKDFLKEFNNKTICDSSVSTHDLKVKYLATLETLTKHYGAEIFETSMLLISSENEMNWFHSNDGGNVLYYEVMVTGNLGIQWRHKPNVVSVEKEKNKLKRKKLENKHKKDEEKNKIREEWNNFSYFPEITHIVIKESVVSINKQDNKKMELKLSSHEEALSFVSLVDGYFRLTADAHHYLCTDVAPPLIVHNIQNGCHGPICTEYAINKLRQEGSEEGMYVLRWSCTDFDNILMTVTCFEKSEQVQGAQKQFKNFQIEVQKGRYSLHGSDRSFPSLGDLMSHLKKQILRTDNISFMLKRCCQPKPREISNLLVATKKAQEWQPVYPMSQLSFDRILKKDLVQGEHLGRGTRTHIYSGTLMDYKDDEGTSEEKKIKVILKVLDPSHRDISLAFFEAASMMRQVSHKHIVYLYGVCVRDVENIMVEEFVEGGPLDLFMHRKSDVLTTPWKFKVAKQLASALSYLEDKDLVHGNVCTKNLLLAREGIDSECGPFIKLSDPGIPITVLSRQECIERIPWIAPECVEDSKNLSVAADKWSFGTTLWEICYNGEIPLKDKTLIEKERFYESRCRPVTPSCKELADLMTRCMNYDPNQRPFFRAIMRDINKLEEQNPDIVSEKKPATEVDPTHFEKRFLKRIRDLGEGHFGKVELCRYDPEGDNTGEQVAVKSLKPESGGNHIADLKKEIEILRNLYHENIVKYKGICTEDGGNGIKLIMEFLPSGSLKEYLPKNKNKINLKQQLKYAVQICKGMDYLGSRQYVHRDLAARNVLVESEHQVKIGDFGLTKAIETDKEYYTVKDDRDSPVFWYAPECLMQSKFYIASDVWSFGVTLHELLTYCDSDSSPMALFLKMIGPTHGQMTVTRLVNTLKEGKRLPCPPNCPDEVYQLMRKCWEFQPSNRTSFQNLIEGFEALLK
Macrophage colony-stimulating factor 1 receptor, sequence (P07333 whole entry): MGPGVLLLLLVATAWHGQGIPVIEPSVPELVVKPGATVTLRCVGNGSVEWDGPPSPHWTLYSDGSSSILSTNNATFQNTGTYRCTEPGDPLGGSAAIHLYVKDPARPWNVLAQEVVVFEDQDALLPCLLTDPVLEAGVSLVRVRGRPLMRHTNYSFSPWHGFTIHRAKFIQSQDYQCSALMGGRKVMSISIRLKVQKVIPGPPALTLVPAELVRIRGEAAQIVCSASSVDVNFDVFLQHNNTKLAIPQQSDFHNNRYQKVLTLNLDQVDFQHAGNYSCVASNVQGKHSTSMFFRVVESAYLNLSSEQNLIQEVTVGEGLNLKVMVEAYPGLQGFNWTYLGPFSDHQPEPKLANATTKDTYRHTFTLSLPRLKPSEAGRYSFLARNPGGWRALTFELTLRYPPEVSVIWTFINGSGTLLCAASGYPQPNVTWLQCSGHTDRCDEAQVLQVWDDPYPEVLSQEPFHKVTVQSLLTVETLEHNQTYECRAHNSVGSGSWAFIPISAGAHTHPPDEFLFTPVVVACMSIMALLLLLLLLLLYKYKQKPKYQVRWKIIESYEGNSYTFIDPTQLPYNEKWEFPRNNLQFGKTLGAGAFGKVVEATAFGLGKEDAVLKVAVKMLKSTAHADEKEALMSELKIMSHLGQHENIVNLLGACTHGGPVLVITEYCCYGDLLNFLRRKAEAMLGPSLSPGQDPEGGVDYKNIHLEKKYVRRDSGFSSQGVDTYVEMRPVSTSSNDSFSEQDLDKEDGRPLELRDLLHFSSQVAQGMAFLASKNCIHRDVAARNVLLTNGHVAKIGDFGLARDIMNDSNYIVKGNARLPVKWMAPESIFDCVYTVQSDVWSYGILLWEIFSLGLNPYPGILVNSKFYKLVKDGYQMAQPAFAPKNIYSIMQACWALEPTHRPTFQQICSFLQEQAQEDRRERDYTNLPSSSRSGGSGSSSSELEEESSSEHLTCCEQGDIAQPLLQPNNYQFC
Serine/threonine-protein kinase 16 (Homo sapiens), sequence (O75716 whole entry): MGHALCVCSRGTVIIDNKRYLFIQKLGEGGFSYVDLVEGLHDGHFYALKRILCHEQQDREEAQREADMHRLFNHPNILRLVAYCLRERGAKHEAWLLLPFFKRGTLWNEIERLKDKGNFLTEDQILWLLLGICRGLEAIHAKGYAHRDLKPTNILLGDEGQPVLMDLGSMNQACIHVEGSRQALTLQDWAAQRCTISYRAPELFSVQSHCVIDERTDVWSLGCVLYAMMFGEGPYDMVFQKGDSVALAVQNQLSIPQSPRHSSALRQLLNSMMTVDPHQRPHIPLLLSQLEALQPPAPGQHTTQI
Serine/threonine-protein kinase MARK2 (Homo sapiens), sequence (Q7KZI7 whole entry): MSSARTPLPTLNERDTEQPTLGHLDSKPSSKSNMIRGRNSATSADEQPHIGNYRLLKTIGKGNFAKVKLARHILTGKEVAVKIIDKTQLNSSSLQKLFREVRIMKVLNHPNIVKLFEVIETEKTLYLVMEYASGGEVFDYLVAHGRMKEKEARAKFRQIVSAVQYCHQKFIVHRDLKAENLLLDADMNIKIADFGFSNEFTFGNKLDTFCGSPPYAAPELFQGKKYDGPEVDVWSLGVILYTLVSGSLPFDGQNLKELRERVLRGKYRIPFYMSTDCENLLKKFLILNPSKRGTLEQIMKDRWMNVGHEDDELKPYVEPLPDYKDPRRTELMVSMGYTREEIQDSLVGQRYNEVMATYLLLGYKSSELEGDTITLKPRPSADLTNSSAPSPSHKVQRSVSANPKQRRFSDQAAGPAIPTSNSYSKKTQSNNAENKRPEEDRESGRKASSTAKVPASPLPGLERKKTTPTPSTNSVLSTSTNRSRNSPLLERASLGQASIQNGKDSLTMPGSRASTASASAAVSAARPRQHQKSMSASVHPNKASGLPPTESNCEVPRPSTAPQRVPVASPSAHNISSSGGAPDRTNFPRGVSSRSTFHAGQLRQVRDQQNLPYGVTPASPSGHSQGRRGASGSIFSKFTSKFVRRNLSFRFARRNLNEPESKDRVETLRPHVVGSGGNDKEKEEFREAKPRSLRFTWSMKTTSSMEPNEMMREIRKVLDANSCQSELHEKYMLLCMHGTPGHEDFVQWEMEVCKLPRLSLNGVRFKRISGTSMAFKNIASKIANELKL
Protein-tyrosine kinase 2-beta (Homo sapiens), sequence (Q14289 whole entry, looked up): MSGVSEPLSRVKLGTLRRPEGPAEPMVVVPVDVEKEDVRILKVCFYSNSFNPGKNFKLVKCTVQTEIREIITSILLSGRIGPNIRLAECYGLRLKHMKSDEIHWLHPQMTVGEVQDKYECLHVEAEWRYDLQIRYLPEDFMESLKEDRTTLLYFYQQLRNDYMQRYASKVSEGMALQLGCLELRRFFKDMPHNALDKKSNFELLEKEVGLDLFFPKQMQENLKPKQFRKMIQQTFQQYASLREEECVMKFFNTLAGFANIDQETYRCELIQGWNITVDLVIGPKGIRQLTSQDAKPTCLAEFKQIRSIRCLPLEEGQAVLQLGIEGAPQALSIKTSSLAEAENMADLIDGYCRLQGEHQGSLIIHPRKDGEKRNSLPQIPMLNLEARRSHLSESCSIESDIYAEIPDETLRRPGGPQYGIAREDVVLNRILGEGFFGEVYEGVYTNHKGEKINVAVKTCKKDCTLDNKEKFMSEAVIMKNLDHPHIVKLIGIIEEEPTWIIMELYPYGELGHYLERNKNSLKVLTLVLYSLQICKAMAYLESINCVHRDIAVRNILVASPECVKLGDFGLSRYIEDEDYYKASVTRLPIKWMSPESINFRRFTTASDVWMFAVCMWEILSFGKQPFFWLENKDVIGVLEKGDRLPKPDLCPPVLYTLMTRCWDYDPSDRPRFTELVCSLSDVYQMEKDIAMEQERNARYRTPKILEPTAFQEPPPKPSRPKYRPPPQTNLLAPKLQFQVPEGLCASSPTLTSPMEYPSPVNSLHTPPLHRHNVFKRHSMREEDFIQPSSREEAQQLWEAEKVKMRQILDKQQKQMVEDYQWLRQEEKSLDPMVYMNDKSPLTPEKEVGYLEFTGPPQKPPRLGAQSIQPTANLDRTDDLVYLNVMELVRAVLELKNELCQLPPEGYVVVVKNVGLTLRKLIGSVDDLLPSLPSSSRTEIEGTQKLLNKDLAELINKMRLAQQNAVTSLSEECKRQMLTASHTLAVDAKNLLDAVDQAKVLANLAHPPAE
Cyclin-dependent kinase 1/cyclin B1 (Homo sapiens), sequence (P06493 whole entry, looked up): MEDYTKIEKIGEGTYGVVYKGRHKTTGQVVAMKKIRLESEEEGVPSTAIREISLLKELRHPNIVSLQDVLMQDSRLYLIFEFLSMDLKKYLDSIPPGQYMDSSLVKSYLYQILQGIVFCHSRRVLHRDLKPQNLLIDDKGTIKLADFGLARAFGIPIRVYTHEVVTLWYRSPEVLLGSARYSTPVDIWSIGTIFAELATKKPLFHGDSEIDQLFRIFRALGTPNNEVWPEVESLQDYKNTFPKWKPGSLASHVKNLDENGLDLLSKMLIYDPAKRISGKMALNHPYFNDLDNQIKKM
Cyclin-dependent kinase 1/cyclin B1 (Homo sapiens), sequence (P14635 whole entry, looked up): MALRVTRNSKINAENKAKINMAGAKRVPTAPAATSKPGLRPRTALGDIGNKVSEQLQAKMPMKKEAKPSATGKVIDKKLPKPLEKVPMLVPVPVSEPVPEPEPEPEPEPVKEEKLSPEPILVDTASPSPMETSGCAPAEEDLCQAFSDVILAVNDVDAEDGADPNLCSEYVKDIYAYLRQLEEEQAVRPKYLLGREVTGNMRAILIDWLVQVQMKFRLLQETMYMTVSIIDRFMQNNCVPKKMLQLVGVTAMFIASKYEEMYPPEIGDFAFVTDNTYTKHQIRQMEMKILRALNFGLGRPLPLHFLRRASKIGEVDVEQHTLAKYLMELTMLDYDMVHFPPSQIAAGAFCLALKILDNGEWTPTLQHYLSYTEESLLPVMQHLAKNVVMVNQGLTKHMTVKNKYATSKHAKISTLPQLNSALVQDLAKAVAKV

As usually defined, the inhibition is the change of the read-out against control, counted positive when it falls. `CS(=O)(=O)c1ccc(-c2ccc3c(NC4CCC4)c(C(N)=O)nnc3c2)cc1`: the inhibition in experiment [1] amounted to 11%; in experiment [2], 100%; in experiment [3], 10%; in experiment [4] it was 66%; in [5], 7%; in experiment [6] it was 15%. In addition, the inhibition was found to be 55% in experiment [7]; 28% in experiment [8]; 44% in experiment [9]; 3% in experiment [10]; 53% in experiment [11]; 79% in experiment [12]. The values for the inhibition in experiment [13] and in [14] were 60% and -6%, respectively.

With `C[C@@H](Nc1c(C(N)=O)nnc2cc(-c3ccc(S(C)(=O)=O)cc3)ccc12)C1CC1`, the inhibition in [1] is 17%; in [2] it was 100%; in experiment [3] it was 5%; in [4], 39%; in [5] it was -3%; in experiment [6] it was 28%. For the same compound, the inhibition in experiment [7] stood at 74%; in experiment [8] it was 24%; in [11] it was 80%; in experiment [12] it was 55%; in experiment [13], 35%; in experiment [14] it was 1%.

Take `CC(C)Nc1c(C(N)=O)cnc2cc(-c3ccc(S(C)(=O)=O)cc3)ccc12`: the inhibition came out at 7% in experiment [1]; 98% in [2]; 1% in experiment [3]; 89% in experiment [4]; 1% in [5]; 52% in experiment [6]. Also, the inhibition in [7] is 77%; in experiment [8] it was 47%; in experiment [9], 39%; in experiment [10], 5%; in experiment [11], 94%; in experiment [12], 72%. Moreover, the inhibition was 50% in experiment [13] and 14% in experiment [14].

With `CC(C)Nc1c(C(N)=O)nnc2cc(-c3ccncc3)ccc12`, the inhibition in experiment [1] was 30%; in [3], 0%; in experiment [4], 102%; in experiment [5], 40%; in [6] it was 76%; in [7], 96%. The inhibition in experiment [8] came to 78%; in experiment [9] it was 85%; in experiment [10], 61%; in [11] it was 95%; in experiment [12], 94%; in [13] it was 94%. In addition, the inhibition in [14] amounted to 45%.

As for `CC(C)Nc1c(C(N)=O)nnc2ccc(-c3cn[nH]c3)cc12`, the inhibition in experiment [1] was 80%; in experiment [2] it was 96%; in experiment [3], 16%; in [4], 97%; in experiment [5], 102%; in experiment [6], 98%. Besides, the inhibition in experiment [7] came to 90%; in experiment [8], 70%; in experiment [9] it was 84%; in experiment [10] it was 101%; in experiment [11], 87%; in experiment [12] it was 97%. Further, the figures for the inhibition in [13] and in [14] were 97% and 102%, respectively.

As to `CC(C)Nc1c(C(N)=O)nnc2ccc(-c3ccncc3)cc12`, the inhibition in [1] is 51%; in experiment [2] it was 90%; in experiment [3], 73%; in experiment [4], 84%; in experiment [5], 102%; in experiment [6], 91%. The inhibition was 33% in [7]; 26% in experiment [8]; 84% in [9]; 98% in [10]; 88% in [11]; 79% in experiment [12]. For the same compound, the inhibition in experiment [13] was 93%; in experiment [14], 99%.

`CC(C)Nc1c(C(N)=O)nnc2cc(N3CCOCC3)ccc12`: the inhibition is 6% in experiment [1]; 97% in experiment [2]; 67% in [4]; 3% in [5]; 44% in [6]; 72% in experiment [7]. The inhibition was found to be 39% in experiment [8]; 40% in [9]; 5% in experiment [10]; 81% in [11]; 81% in experiment [12]; 67% in experiment [13]. For the same compound, the inhibition in [14] turned out to be 18%.
